Tests used:
Assay type in all cases: functional
Spodoptera litura [1] = assay: Antifeedant activity against Spodoptera litura at 1 ug
Spodoptera litura [2] = assay: Antifeedant activity against Spodoptera litura at 0.5 ug
Spodoptera litura [3] = assay: Antifeedant activity against Spodoptera litura at 5 ug

Row | Compound | Activity (Spodoptera litura [1]) | Activity (Spodoptera litura [2]) | Activity (Spodoptera litura [3])
1 | CC(=O)O[C@@H]1[C@H](O)[C@H]2C(C)(C)C(=O)C=C[C@]2(C)[C@H]2CC[C@@]3(C)[C@H](C45CC(O)OC4O5)C[C@@H]4O[C@@]43[C@]12C (some centres not stated) [NIMONOL PP2] | 68.7% | 55.3% | 73.5%
2 | C/C=C(\C)C(=O)O[C@H]1C[C@@H](OC(C)=O)[C@@]2(C(=O)OC)CO[C@H]3[C@@H](O)[C@@](C)([C@]45O[C@@]4(C)[C@@H]4C[C@H]5O[C@@H]5OC=C[C@@]54O)[C@H]4[C@]1(CO[C@]4(O)C(=O)OC)[C@@H]32 [AZADIRACHTIN A] | 85.5% | 83.3% | 100%
3 | CC(=O)O[C@@H]1[C@H](O)[C@H]2C(C)(C)C(=O)C=C[C@]2(C)[C@H]2CC[C@]3(C)C(=CC[C@H]3c3ccoc3)[C@]12C [NIMONOL] | 55.7% | 32.5% | 32.2%
4 | CC(=O)O[C@@H]1[C@H](O)[C@H]2C(C)(C)C(=O)C=C[C@]2(C)[C@H]2CC[C@@]3(C)[C@H](C4=CC(O)OC4=O)C[C@@H]4O[C@@]43[C@]12C (some centres not stated) [NIMONOLIDE] | 80.2% | 67.5% | 82.5%

Source: ChEMBL document CHEMBL3046719, “Photooxygenation of Nimonol, a Tetranortriterpenoid from Azadirachta indica. A. Juss” (2002)
